Experimental data published in BigSolDB 2.1.

NC(N)=NC(N)=NCCc1ccccc1
solubility (mole fraction)
Conditions	278.15 K	283.15 K	288.15 K	293.15 K	298.15 K	303.15 K	308.15 K	313.15 K	318.15 K	323.15 K
in 1,4-dioxane	–	–	0.000166	0.000202	0.000249	0.000312	0.000379	0.00046	0.000551	0.00065
in DMF	0.0158	0.0191	0.0226	0.0256	0.0303	0.0353	0.0411	0.0491	0.0579	0.0655
in DMSO	–	–	–	0.0217	0.025	0.0305	0.0359	0.0431	0.0508	0.0603
in NMP	0.0113	0.014	0.017	0.0202	0.0235	0.028	0.0337	0.0409	0.0486	0.0579
in acetonitrile	0.000211	0.00026	0.000322	0.000398	0.000494	0.000596	0.00071	0.00084	0.00101	0.00119
in ethanol	0.00183	0.0022	0.00266	0.00322	0.00378	0.00449	0.00524	0.00614	0.00723	0.00847
in ethyl acetate	0.00157	0.00184	0.0022	0.00265	0.00318	0.00379	0.00445	0.00521	0.00603	0.00695
in ethylene glycol	0.0033	0.00366	0.00417	0.00481	0.00567	0.00677	0.00774	0.00919	0.011	0.0128
in isobutanol	0.000518	0.00063	0.000792	0.00095	0.00116	0.00139	0.00167	0.00197	0.00229	0.00265
in isopropanol	0.000814	0.000976	0.00118	0.00142	0.00174	0.00208	0.00247	0.00288	0.00334	0.00383
in methanol	0.00237	0.0028	0.00328	0.00385	0.00457	0.00532	0.00623	0.00743	0.00823	0.0103
in n-butanol	0.000627	0.000777	0.000923	0.00118	0.00142	0.00167	0.00194	0.00227	0.00265	0.00308
in n-propanol	0.000975	0.00116	0.00137	0.00173	0.00208	0.00249	0.0029	0.00341	0.00396	0.00452
in water	0.000389	0.000481	0.000585	0.000739	0.000888	0.00107	0.00126	0.00148	0.00175	0.00206
